Reference: PMC4850295, “Using a Genetically Encoded Sensor to Identify Inhibitors of Toxoplasma gondii Ca^2+ Signaling” (The Journal of Biological Chemistry, 2016)

The compounds below were run on T1, GCaMP5-expressing T. gondii. Settings: 100 uM zaprinast stimulation, 10 min pretreatment, mean of two replicates, 0.23 h, 10 µM.
T1 construct: whole extracellular parasites expressing GCaMP5 Ca2+ sensor
Parameters: species or system GCaMP5-expressing Toxoplasma gondii, extracellular; GCaMP5 fluorescence (cytosolic Ca2+) after 100 uM zaprinast in compound-pretreated extracellular parasites, background-subtracted, relative to zaprinast alone
Method in brief: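 Read-out is GCaMP5 calcium fluorescence (ex 485/em 525 nm) taken 4 min after 100 μM zaprinast at 37 °C, following 10 min compound pretreatment at 10 μM in duplicate biological replicates. Values are basal-subtracted fold change versus zaprinast-only controls; parasites held extracellular in Ringer's solution.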

For `Nc1ncnc2occ(-c3ccc(NC(=O)Nc4cc(C(F)(F)F)ccc4F)cc3)c12` [GW770249A], the “fold change in fluorescence relative to zaprinast alone” value was 0.2788.

Same assay, conditions: 100 uM zaprinast stimulation; 10 min pretreatment; mean of two replicates; 0.23 h

In order of falling “fold change in fluorescence relative to zaprinast alone” value:
1. Cc1ccc(NC(=O)c2ccnc(N3CCCCC3)c2)cc1-c1ccc(C(=O)NCC2CC2)cc1 [GW775610X]  1.448
2. COC(=O)Nc1nc2ccc(Oc3ccc(NC(=O)Nc4cccc(SC)c4)cc3)cc2[nH]1 [GW697999A]  1.427
3. Nc1nc(-c2ccc(F)cc2)c(-c2ccc3ncccc3n2)s1 [GW785804X]  1.356
4. Cc1c2ccc(N(C)c3ccnc(Nc4cccc(S(N)(=O)=O)c4)n3)cc2nn1Cc1ccccc1 [GW787226A]  1.348
5. C=CC(=O)Nc1cc2c(Nc3ccc(F)c(Cl)c3)ncnc2cc1OCCCN1CCOCC1 [GW781483X]  1.29
6. COc1ccc(NC(=O)c2ccoc2)cc1-c1ccc(C(=O)NCC2CC2)cc1 [GW810437X]  1.267
7. Cc1nnc(-c2ccc(C)c(-c3ccc(C(=O)Nc4ccc(NS(C)(=O)=O)cc4)cc3)c2)o1 [GW702865X]  1.258
8. Cc1ccc(C(=O)NC2CCCCC2)cc1-c1ccc(C(=O)NCC2CC2)cc1 [GW782907X]  1.25
9. CN(c1ccc2c(c1)nc(NCc1ccccc1)n2C)c1ccnc(Nc2ccc(CS(C)(=O)=O)cc2)n1 [GW811603A]  1.239
10. COc1cccc(-n2nc(C)c3c(N/N=C(\C)c4ccncc4)ncnc32)c1 [GW809885X]  1.233
11. O=C(NCC1CC1)c1ccc(-c2cc(C(=O)NC3CC3)ccc2F)cc1 [GW810445X]  1.232
12. Cc1ccc(NC(=O)CC2CC2)cc1-c1ccc(C(=O)NCC2CC2)cc1 [GW796920X]  1.231
13. Cc1cccc(-c2n[nH]cc2-c2ccc3ncccc3n2)n1 [GW786460X]  1.226
14. Cc1ccc(NC(=O)c2ccoc2)cc1-c1ccc(C(=O)NCC2CC2)cc1 [GW743024X]  1.222
15. Cc1c2ccc(N(C)c3ccnc(Nc4cccc(S(N)(=O)=O)c4)n3)cc2nn1C [GW771127A]  1.211
16. Cc1ccc(NC(=O)c2ccnc(N3CCN(C)CC3)c2)cc1-c1ccc(C(=O)NCC2CC2)cc1 [GW775604X]  1.197
17. COC(=O)Nc1nc2cc(Oc3ccc(NC(=O)Nc4cccc(C(=O)O)c4)cc3)ccc2[nH]1 [GW701427A]  1.188
18. O=C(c1ccc(-c2cc(-c3cn[nH]c3-c3ccccn3)ccn2)cc1)N1CCOCC1 [GW812171X]  1.17
19. NC(=O)c1cccc(Nc2nccc(Nc3cccc(F)c3)n2)c1 [GW759710A]  1.166
20. c1ccc(-c2n[nH]cc2-c2ccnc(-c3ccc(OCCn4ccnc4)cc3)c2)nc1 [GW711782X]  1.163
21. CN(c1ccc2c(c1)nc(NCc1ccc(F)cc1)n2C)c1ccnc(Nc2ccc(CS(C)(=O)=O)cc2)n1 [GW813244A]  1.154
22. FC(F)(F)c1ccc(/C=C/c2cncnc2Nc2ccc3nc(Cc4ccccc4)[nH]c3c2)cc1 [GW709199X]  1.132
23. Cc1ccc(NC(=O)c2ccnc(N3CCCC3)c2)cc1-c1ccc(C(=O)NCC2CC2)cc1 [GW769076X]  1.128
24. COC(=O)Nc1nc2cc(Oc3ccc(NC(=O)Nc4ccccc4)cc3)ccc2[nH]1 [GW694590A]  1.127
25. Cc1ccc(C(=O)NC(C)C)cc1-c1ccc(C(=O)NCC2CC2)cc1 [GW785974X]  1.119
26. CN(C(=O)c1ccc(-c2cc(-c3cn[nH]c3-c3ccccn3)ccn2)cc1)C1CCOCC1 [GW810083X]  1.114
27. COc1cccc(-n2ncc3c(N/N=C/c4ccncc4)ncnc32)c1 [GW784752X]  1.109
28. Cc1ccc(C(=O)NC2CCCC2)cc1-c1ccc(C(=O)NCC2CC2)cc1 [GW800172X]  1.109
29. COc1cccc(COc2cc(-n3cnc4ccccc43)sc2C(N)=O)c1 [GW804482X]  1.105
30. c1ccc(-c2n[nH]cc2-c2ccnc(-c3ccc(OCCN4CCOCC4)cc3)c2)nc1 [GW695874X]  1.104
31. CC(=O)Nc1cccc(C#Cc2cncnc2Nc2ccc(OCc3cccc(F)c3)c(Cl)c2)c1 [GW703087X]  1.104
32. Cc1ccc(C(=O)NC2CCC2)cc1-c1ccc(C(=O)NCC2CC2)cc1 [GW782912X]  1.104
33. CN(c1ccc(NC(=O)Nc2c(Cl)cccc2Cl)cc1)c1ccnc(Nc2cccc(CS(C)(=O)=O)c2)n1 [GW809897X]  1.103
34. COC(=O)Nc1nc2ccc(Oc3ccc(NC(=O)Nc4cc(F)ccc4F)cc3)cc2[nH]1 [GW701424A]  1.084
35. c1ccc(-c2[nH]ncc2-c2ccnc(-c3ccc(CNC4CCOCC4)cc3)c2)nc1 [GW709213X]  1.08
36. Nc1nccc(C#Cc2cncnc2Nc2ccc(OCc3cccc(F)c3)c(Cl)c2)n1 [GW799251X]  1.079
37. O=C(Nc1ccc(Oc2ccc3[nH]c(NC(=O)c4ccccc4)nc3c2)cc1)Nc1cc(C(F)(F)F)ccc1F [GW709042A]  1.07
38. NC(=O)c1cccc(Nc2nccc(Nc3cccc4[nH]ncc34)n2)c1 [GW782612X]  1.061
39. COc1ccc(CNC(=O)c2ccc(-c3cc(-c4nnc(C)o4)ccc3C)cc2)cc1 [GW701032X]  1.056
40. CCOc1ccc2c(-c3ccnc(Nc4cccc(C(F)(F)F)c4)n3)cnn2n1 [GW811761X]  1.047
41. Cc1nnc(-c2ccc(C)c(-c3ccc(C(=O)NCc4ccc(Cl)cc4)cc3)c2)o1 [GW708893X]  1.038
42. c1ccc(-c2[nH]ncc2-c2ccnc(-c3ccc(CN4CCOCC4)cc3)c2)nc1 [GW776245A]  1.036
43. Cc1ccnc2ccc(-c3sc(N)nc3-c3ccccn3)nc12 [GW777257X]  1.011
44. COc1ccc(C)c(Nc2ccnc(Nc3ccc(-c4cnc[nH]4)cc3)n2)c1 [GW784041A]  1.009
45. CN(C)CC(O)COc1ccc(Nc2nccc(-c3cnn4nc(N5CCOCC5)ccc34)n2)cc1 (stereo not shown) [GW767488X]  0.9765
46. CN1CCN(CCNc2nc3ccc(Oc4ccc(NC(=O)Nc5cc(C(F)(F)F)ccc5F)cc4)cc3[nH]2)CC1 [GW768504A]  0.9512
47. FC(F)(F)c1cc(Br)cc(Nc2nccc(-c3cnn4ncccc34)n2)c1 [GW810578X]  0.9472
48. CCOc1ccc2c(-c3ccnc(Nc4cc(OC)cc(C(F)(F)F)c4)n3)cnn2n1 [GW807982X]  0.9255
49. COC(=O)Nc1nc2cc(Oc3ccc(NC(=O)Nc4cccc(Br)c4)cc3)ccc2[nH]1 [GW694234A]  0.8976
50. CCN(CC)Cc1ccc(Nc2nccc(-c3cnn4ncccc34)n2)cc1 [GW780056X]  0.8961
51. COC(=O)Nc1nc2ccc(Oc3ccc(NC(=O)Nc4cc(C(F)(F)F)ccc4Cl)cc3)cc2[nH]1 [GW697465A]  0.849
52. Clc1ccc(CNc2nccc(-c3cnn4ncccc34)n2)cc1 [GW781673X]  0.7156
53. CCCNc1cccc(-n2ncc3c(N/N=C/c4ccncc4)ncnc32)c1 [GW794607X]  0.688
54. c1cc(-c2cnn3nc(N4CCOCC4)ccc23)nc(NC2CC2)n1 [GW708336X]  0.6756
55. COc1cccc(-n2ncc3c(N/N=C/c4ccc(S(C)(=O)=O)cc4)ncnc32)c1 [GW811168X]  0.6755
56. CC(C)Oc1ccc2c(-c3ccnc(Nc4ccc(N5CCN(C)CC5)cc4)n3)cnn2n1 [GW696155X]  0.6015
57. COc1cccc(-n2ncc3c(N/N=C/c4ccc(C(=O)NCCN(C)C)cc4)ncnc32)c1 [GW784307A]  0.4737
58. CN(c1ccc(NC(=O)Nc2ccc(OC(F)(F)F)cc2)cc1)c1ccnc(Nc2cccc(S(N)(=O)=O)c2)n1 [GW806742X]  0.4394
59. COc1cc(Nc2nccc(-c3cnn4ncccc34)n2)cc(OC)c1 [GW801372X]  0.4013
60. CN(c1ccc(NC(=O)Nc2cc(C(F)(F)F)ccc2F)cc1)c1ccnc(Nc2ccc(S(N)(=O)=O)cc2)n1 [GW809893X]  0.2843
61. Fc1cccc(COc2ccc(Nc3ncnc4sc(-c5ccc[nH]5)cc34)cc2Cl)c1 [GW707818B]  0.2741
62. CC(C)c1ccc(Nc2nccc(-c3cnn4ncccc34)n2)cc1 [GW805758X]  0.2516
63. COc1ccc2c(-c3ccnc(Nc4cccc(OC(F)(F)F)c4)n3)cnn2n1 [GW810372X]  0.1756
64. N#Cc1cccc(Nc2nccc(-c3cnn4ncccc34)n2)c1 [GW778894X]  0.1658
65. Nc1ncnc2occ(-c3ccc(NC(=O)Nc4cc(C(F)(F)F)cc(C(F)(F)F)c4)cc3)c12 [GW795486X]  0.08819
66. c1cnn2ncc(-c3ccnc(Nc4ccc5c(c4)OCCO5)n3)c2c1 [GW806290X]  -0.04929
